Each molecule was assayed against T1, human ADRA2B receptor (Homo sapiens, UniProt P18089) (assay: GTPγS agonist assay, ADRA2B receptor). Details: read-out: GTPase - Human Alpha2B EC50.
T1 construct: expressed in transfected cells
T1 sequence (P18089 1-450): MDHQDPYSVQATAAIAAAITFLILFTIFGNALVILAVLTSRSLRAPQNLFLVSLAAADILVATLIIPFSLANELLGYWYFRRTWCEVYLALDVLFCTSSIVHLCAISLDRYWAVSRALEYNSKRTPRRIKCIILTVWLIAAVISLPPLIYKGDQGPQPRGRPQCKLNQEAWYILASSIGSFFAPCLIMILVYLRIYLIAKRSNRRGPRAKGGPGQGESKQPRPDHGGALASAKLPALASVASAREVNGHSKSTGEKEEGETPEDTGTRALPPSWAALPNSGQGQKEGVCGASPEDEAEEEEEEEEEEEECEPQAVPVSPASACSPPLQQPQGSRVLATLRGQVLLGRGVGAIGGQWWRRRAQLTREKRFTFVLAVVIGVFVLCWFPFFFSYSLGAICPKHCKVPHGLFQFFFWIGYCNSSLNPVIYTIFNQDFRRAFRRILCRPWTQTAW
Assay type: biochemical
Protocol: GTP ? S Agonist Assays (ADRA2A, ADRA2B, and ADRA2C Receptors)
Membranes were prepared for GTP ? S binding assays from CHO-K1 cells stably expressing human ADRA2A, ADRA2B, or ADRA2C receptor. Briefly, cells were grown in 5-layer cell culture flasks. Cells were washed with 50 mL of PBS and then dissociated with 0.05% trypsin. Dissociated cells were then collected by centrifugation at 650×g for 8 min at 4° C. Pellets were washed again in PBS by centrifugation and resuspended in 30 mL of 20 mM HEPES, 10 mM EDTA, pH 7.4. After sitting on ice for 30 min, membranes were collected by centrifugation at 50000×g for 15 min at 4° C., resuspended in 30 mL of 20 mM HEPES, 0.1 mM EDTA, pH 7.4 and collected again by centrifugation. Pellets were then washed twice by centrifugation in 30 mL of 20 mM HEPES, pH 7.4, and stored at −80° C. until the day of the assay. On the day of the assay, pellets were thawed on ice and resuspended in 1 mL of 20 mM HEPES, pH 7.4, 10 mM MgCl2, 100 mM NaCl using dounce homogenization. Membrane protein concentration was determined by BCA protein assay (Promega, Madison, WI) according to Promega guidelines.
On the day of the assay, serial dilutions of test compounds were brought up in assay buffer (20 mM HEPES, 10 mM MgCl2, 200 mM NaCl) at 10× final assay concentration. 50 μL/well of membrane homogenates (containing 5 μg of membrane protein for ADRA2A, ADRA2B, or 7.5 μg for ADRA2C) were prepared in assay buffer supplemented with GDP at 2× final assay concentration (5 μM GDP) and dispensed into 96 well polypropylene, U-bottom Greiner plates. Then, 10 μL of compounds were added to assay plates and incubated for 10 min at room temperature. […] The binding reaction was incubated for 1 h at 37° C. Membranes in assay reactions were then transferred to GF/C filter plates (UniFilter, Perkin Elmer) and washed three times using a FilterMate Harvester (Perkin Elmer) with cold assay buffer containing no GDP. Filter plates were then dried at 40° C. overnight followed by the addition of 30 μL/well of Beta Plate Scintillation liquid. Plates were top and bottom sealed before being read on TopCount scintillation counter (Perkin Elmer, Waltham, MA).

Compound	EC50 [nM]
Cc1cccc([C@H](Cc2ccccn2)c2cnc[nH]2)c1F [Compound 39, 2-[(2S)-2-(2-fluoro-3-methylphenyl)-2-(1H-imidazol-4-yl)ethyl] pyridine]	> 500
COc1nccc(CC(c2c[nH]cn2)c2cccc(Cl)c2C)n1 (centres unmarked) [Compound 185, 4-[2-(3-chloro-2-tolyl)-2-(4-imidazolyl)ethyl]-2-methoxypyrimidine]	< 10
COc1cccc(CC(c2cnc[nH]2)c2cccc(OC)c2Cl)n1 (centres unmarked) [Compound 20, 2-[2-(2-chloro-3-methoxyphenyl)-2-(1H-imidazol-4-yl)ethyl]-6-methoxypyridine]	< 10
FC(F)Oc1ccccc1C(Cc1ccccn1)c1c[nH]cn1 (centres unmarked) [Compound 107, 4-[1-(o-difluoro-methoxyphenyl) 2-(2-pyridyl)ethyl] imidazole]	> 500
c1ccc(C[C@H](c2cnc[nH]2)c2cccc3c2COC3)nc1 [Compound 45, 2-[(2S)-2-(1,3-dihydro-2-benzofuran-4-yl)-2-(1H-imidazol-4-yl)ethyl] pyridine]	> 500
COc1cccc(C[C@@H](c2cnc[nH]2)c2cccc3c2OCC3)n1 [Compound 17, 2-[(2R)-2-(2,3-dihydro-1-benzofuran-7-yl)-2-(1H-imidazol-4-yl)ethyl]-6-methoxypyridine]	50 to 500
Cc1cccc([C@H](Cc2cccc(C(F)(F)F)n2)c2c[nH]cn2)c1C [Compound 80, 2-[(2S)-2-(2,3-dimethylphenyl)-2-(1H-imidazol-4-yl)ethyl]-6-(trifluoromethyl) pyridine]	< 10
COc1cc(CC(c2c[nH]cn2)c2cccc3c2OCC3)nc(OC)n1 (centres unmarked) [Compound 335, 4-(2-(2,3-dihydrobenzofuran-7-yl)-2-(1H-imidazol-4-yl)ethyl)-2,6-dimethoxypyrimidine]	< 10
Cc1nccc(C[C@@H](c2cnc[nH]2)c2cccc(C)c2C)n1 [Compound 71, 4-[(2R)-2-(2,3-dimethylphenyl)-2-(1H-imidazol-4-yl)ethyl]-2-methyl-pyrimidine]	> 500
FC1(F)Oc2cccc(C(Cc3ccccn3)c3c[nH]cn3)c2O1 (centres unmarked) [Compound 115, 2,2-difluoro-4-[1-(4-imidazolyl)-2-(2-pyridyl)ethyl]-2H-1,3-benzodioxole]	50 to 500
FC1(F)Oc2cccc([C@H](Cc3ccccn3)c3c[nH]cn3)c2O1 [Compound 122, 4-[(S)-1-(4-imidazolyl)-2-(2-pyridyl)ethyl]-2,2-difluoro-2H-1,3-benzodioxole]	> 500
COc1cccc(C[C@H](c2cnc[nH]2)c2cccc(OC)c2C)n1 [Compound 26, 2-[(2S)-2-(1H-imidazol-4-yl)-2-(3-methoxy-2-methylphenyl)ethyl]-6-methoxypyridine]	50 to 500
Cc1ccnc(C[C@H](c2cnc[nH]2)c2cccc(C)c2C)n1 [Compound 78, 2-[(2S)-2-(2,3-dimethylphenyl)-2-(1H-imidazol-4-yl)ethyl]-4-methylpyrimidine]	> 500
Cc1cnc(CC(c2c[nH]cn2)c2cccc3c2OCC3)s1 (centres unmarked) [Compound 279, 2-[2-(2,3-dihydro-1-benzofuran-7-yl)-2-(4-imidazolyl)ethyl]-5-methyl-1,3-thiazole]	10 to 50
c1ccc(C[C@@H](c2cnc[nH]2)c2cccc3c2COC3)nc1 [Compound 46, 2-[(2R)-2-(1,3-dihydro-2-benzofuran-4-yl)-2-(1H-imidazol-4-yl)ethyl] pyridine]	> 500
COc1nccc(CC(c2c[nH]cn2)c2cccc(C#N)c2C)n1 (centres unmarked) [Compound 171, 6-[1-(4-imidazolyl)-2-(2-methoxy-4-pyrimidinyl)ethyl]-2-toluonitrile]	50 to 500
Fc1cccc(C(Cc2cccnn2)c2c[nH]cn2)c1Cl (centres unmarked) [Compound 218, 3-[2-(2-chloro-3-fluorophenyl)-2-(4-imidazolyl)ethyl] pyridazine]	> 500
COc1cccc(C[C@H](c2cccc(C)c2)c2cnc[nH]2)n1 [Compound 24, 2-[(2R)-2-(1H-imidazol-4-yl)-2-(3-methylphenyl)ethyl]-6-methoxypyridine]	> 500
c1cc2c(c([C@@H](Cc3cnn(C4CC4)c3)c3c[nH]cn3)c1)OCC2 [Compound 289]	> 500

Compound	EC50 [nM]
COc1c(C)cccc1[C@H](Cc1ccccn1)c1cnc[nH]1 [Compound 33, 2-[(2S)-2-(1H-imidazol-4-yl)-2-(2-methoxy-3-methylphenyl)ethyl]pyridine]	> 500
COc1nccc(CC(c2c[nH]cn2)c2cccc3ncoc23)n1 (centres unmarked) [Compound 174, 7-[1-(4-imidazolyl)-2-(2-methoxy-4-pyrimidinyl)ethyl]-1,3-benzoxazole]	50 to 500
Cc1cccc([C@@H](Cc2cncs2)c2c[nH]cn2)c1C [Compound 128, 5-[(R)-2-(4-imidazolyl)-2-(2,3-xylyl)ethyl]-1,3-thiazole]	50 to 500
Cc1cccc(C(Cc2ccccn2)c2cnc[nH]2)c1C (centres unmarked) [Compound 50, 2-[2-(2,3-dimethylphenyl)-2-(1H-imidazol-5-yl)ethyl] pyridine]	> 500
COc1nccc(C[C@H](c2c[nH]cn2)c2cccc(C)c2C)n1 [Compound 53, 4-[(2S)-2-(2,3-dimethylphenyl)-2-(1H-imidazol-4-yl)ethyl]-2-methoxy-pyrimidine]	< 10
Cc1ccc(Cl)cc1C(Cc1cccnn1)c1c[nH]cn1 (centres unmarked) [Compound 225, 3-[2-(5-chloro-2-tolyl)-2-(4-imidazolyl)ethyl] pyridazine]	> 500
Cn1ncc2cc(C(Cc3cccnn3)c3c[nH]cn3)ccc21 (centres unmarked) [Compound 230, 5-[1-(4-imidazolyl)-2-(3-pyridazinyl)ethyl]-1-methyl-1H-indazole]	> 500
Cc1cccc(C(Cc2cnccn2)c2cnc[nH]2)c1C (centres unmarked) [Compound 94, 2-[2-(2,3-dimethylphenyl)-2-(1H-imidazol-4-yl)ethyl] pyrazine]	50 to 500
FC(F)Oc1cccc([C@H](Cc2ccccn2)c2cnc[nH]2)c1 [Compound 37]	10 to 50
Cc1cncc(CC(c2cnc[nH]2)c2cccc(C)c2C)n1 (centres unmarked) [Compound 88, 2-[2-(2,3-dimethylphenyl)-2-(1H-imidazol-4-yl)ethyl]-6-methylpyrazine]	10 to 50
FC(F)(F)c1ccc(Cl)c(C(Cc2cccnn2)c2c[nH]cn2)c1 (centres unmarked) [Compound 361, 3-{2-[2-chloro-5-(trifluoromethyl)phenyl]-2-(4-imidazolyl)ethyl}pyridazine]	> 500
COc1cccc(C[C@H](c2cccc(Cl)c2)c2cnc[nH]2)n1 [Compound 22, 2-[(2R)-2-(3-chlorophenyl)-2-(1H-imidazol-4-yl)ethyl]-6-methoxypyridine]	> 500
COc1cccc(CC(c2c[nH]cn2)c2ccnc(C)c2C)n1 (centres unmarked) [Compound 13, 4-[1-(1H-imidazol-4-yl)-2-(6-methoxypyridin-2-yl)ethyl]-2,3-dimethylpyridine]	> 500
Cc1nccc(CC(c2c[nH]cn2)c2cccc3c2ccn3C)n1 (centres unmarked) [Compound 164, 4-[2-(4-imidazolyl)-2 (1-methyl-4-indolyl)ethyl]-2-methylpyrimidine]	< 10
COc1nccc(CC(c2c[nH]cn2)c2cccc(OC)c2C)n1 (centres unmarked) [Compound 178, 4-[2-(4-imidazolyl)-2-(3-methoxy-2-tolyl)ethyl]-2-methoxypyrimidine]	10 to 50
Cc1cccc([C@@H](Cc2ccccn2)c2cnc[nH]2)c1C [Compound 52, 2-[(2R)-2-(2,3-dimethylphenyl)-2-(1H-imidazol-4-yl)ethyl] pyridine]	10 to 50
Cc1cccc(C(Cc2ccncn2)c2cnc[nH]2)c1C (centres unmarked) [Compound 92, 4-[2-(2,3-dimethylphenyl)-2-(1H-imidazol-4-yl)ethyl] pyrimidine]	10 to 50
Cc1cccc(C(Cc2cocn2)c2c[nH]cn2)c1C (centres unmarked) [Compound 126, 4-[2-(4-imidazolyl)-2-(2,3-xylyl)ethyl]-1,3-oxazole]	< 10
COc1cccc(C[C@H](c2c[nH]cn2)c2cccc(C)c2C)n1 [Compound 3, 2-[(2S)-2-(2,3-dimethylphenyl)-2-(1H-imidazol-4-yl)ethyl]-6-methoxypyridine]	< 10

From patent US20260042769A1, “TRIARYL AGONISTS OF ALPHA-2 ADRENERGIC RECEPTORS” (ALCEPTOR THERAPEUTICS, INC., priority 2023, published 2026)
